Article PMC7694037, “Quinolizidine-Derived Lucanthone and Amitriptyline Analogues Endowed with Potent Antileishmanial Activity” (Pharmaceuticals, 2020)

What was measured:
[1] = test system: Leishmania tropica promastigotes; experiment: Antileishmanial activity against L. tropica promastigotes (MTT assay); conditions: for IC50: Leishmania tropica, 72 h, read-out: IC50 L. tropica, promastigotes, MTT, 72 h, IC50 ± SD; for Ratio IC50 Miltef./IC50 Compd. (L. tropica): ratio between IC50 of miltefosine and that of each compound, L. tropica promastigotes
Experimental: (§3) Promastigote stage of L. infantum strain MHOM/TN/80/IPT1 (kindly provided by Dr. M. Gramiccia, ISS, Roma) and L. tropica (MHOM/SY/2012/ISS3130) were cultured in RPMI 1640 medium (EuroClone) supplemented with 10% heat-inactivated fetal calf serum (EuroClone, Milan Italy), 20 mM Hepes and 2 mM L-glutamine at 24 °C. […] Compounds were dissolved in DMSO and then diluted with medium to achieve the required concentrations. Drugs were placed in 96 wells round-bottom microplates and seven serial dilutions made. Miltefosine was used as reference anti-Leishmania drug. Parasites were diluted in complete medium to 5 × 10^6 parasites/mL and 100 μL of the suspension was seeded into the plates, incubated at 24 °C for 72 h and then 20 µL of MTT solution (5 mg/mL) was added into each well for 3 h. The plates were then centrifuged, the supernatants were discarded and the resulting pellets were dissolved in 100 µL of lysing buffer consisting of 20% (w/v) of a solution of SDS (Sigma), 40% DMF (Merck, Milan Italy) in H2O. The absorbance was measured spectrophotometrically at a test wavelength of 550 nm and a reference wavelength of 650 nm.

[2] = test system: L. infantum promastigotes; experiment: Antileishmanial activity against L. infantum promastigotes (MTT assay); conditions: for IC50: Leishmania infantum, 72 h, read-out: IC50 L. infantum; for Ratio IC50 Miltef./IC50 Compd. (L. infantum): ratio between IC50 of miltefosine and that of each compound, L. infantum promastigotes
Experimental: as §3

[3] = i.p., doses up to 200–350 mg/kg, once a day for five consecutive days, mice inoculated with leukemia P388 cells; cited from earlier work
[4] = Cytotoxicity against Vero-76 cells (crystal violet staining); type: cell-based, Cercopithecus Aethiops; conditions: Cercopithecus aethiops (African green monkey)
Experimental: (§1) The cytotoxicity of lucanthone was also tested for comparison. […] The relevant selectivity index (SI)—a parameter that quantifies the preferential antileishmanial activity of a compound in relation to mammalian cell toxicity (CC50/IC50)—is tabulated in Table 2. […] The replacement of the 4-methyl substituent with an amino group in compound 14, while preserving good antileishmanial activity, led to a further substantial decrease of cytotoxicity, with a resultantly safer profile (SI = 16.2 and 16.9 for the two Leishmania species).
(§2) Vero-76 cells (ATCC CRL 1587 Cercopithecus Aethiops) were seeded at an initial density of 4 × 10^5 cells/mL in 24-well plates, in culture medium (Dulbecco’s modified eagle’s medium (D-MEM) with L-glutamine, supplemented with fetal bovine serum (FBS), 0.025 g/L kanamycin). Cell cultures were then incubated at 37 °C in a humidified, 5% CO2 atmosphere in the absence or presence of serial dilutions of test compounds. Cell viability was determined after 48–96 h at 37 °C by the Crystal violet staining method. The results are expressed as CC50, which is the concentration of compound necessary to inhibit cell growth by 50%. Each CC50 value is the mean and standard deviation of at least three separate experiments performed in duplicate.

Vero-76 cells = experiment: as above; type: cell-based, Cercopithecus Aethiops; conditions: for S.I. L. infantum: CC50 Vero-76 / IC50 L. infantum promastigotes; for S.I. L. tropica: CC50 Vero-76 / IC50 L. tropica promastigotes
Experimental: as §1, §2

[5] = test system: Mycobacterium tuberculosis H37Ra; design: method as in PMID 3653383; conditions: cited from earlier work

SMILES | IC50 [1] [µM] | Ratio IC50 Miltef./IC50 Compd. (L. tropica) [1] | IC50 [2] [µM] | Ratio IC50 Miltef./IC50 Compd. (L. infantum) [2] | mortality [3] | CC50 [4] [µM] | S.I. L. infantum (Vero-76 cells) | S.I. L. tropica (Vero-76 cells) | melting point [°C] | MIC Mycobacterium tuberculosis H37Ra [5] [µM]
O=c1c2ccccc2sc2c([N+](=O)[O-])ccc(NCCCC3CCCN4CCCCC34)c12 (stereo not drawn) [Compound 10] | 11.1 ± 3.3 | 3.9 | 22.3 ± 3.3 | 1.4 |  |  |  |  |  | 
O=c1c2ccccc2sc2c([N+](=O)[O-])ccc(NCCC3CCCN4CCCCC34)c12 (stereo not drawn) [Compound 9] | 4.64 ± 1.12 | 9.3 | 9.39 ± 4.34 | 3.3 | no mortality |  |  |  |  | 
C[N+]12CCCC[C@@H]1[C@H](C=C1c3ccccc3CCc3ccccc31)CCC2.[I-] (stereo partly drawn) [Compound 20, (1S,9aR)-1-[(10,11-dihydro-5H-dibenzo[a,d][7]annulen-5-ylidene)methyl]-5-methyl-decahydroquinolizin-5-ium iodide] | 7.21 ± 3.52 | 6.0 | 8.71 ± 0.68 | 3.58 |  | 89.9 ± 3.7 | 10.3 | 12.5 | 283 to 286 | 
Nc1ccc(NCCCC2CCCN3CCCCC23)c2c(=O)c3ccccc3sc12 (stereo not drawn) [Compound 15] | 3.72 ± 1.66 | 11.6 | 4.22 ± 1.95 | 7.4 |  |  |  |  |  | 
Cc1ccc(NCCC2CCCN3CCCCC23)c2c(=O)c3ccccc3sc12 (stereo not drawn) [Compound 2] | 6.27 ± 2.75 | 6.9 | 10.6 ± 3.78 | 2.95 |  | 22.9 ± 2.3 | 2.2 | 3.7 |  | 
C[N+]12CCCC[C@@H]1[C@H](C=C1c3ccccc3-c3ccccc31)CCC2 (stereo partly drawn) [Compound 19] | 10.5 ± 2.69 | 4.1 | 16.4 ± 0.59 | 1.90 |  | 82.7 ± 4.7 | 5.0 | 7.9 |  | 83.9
COc1ccc2sc3c([N+](=O)[O-])ccc(NCCCC4CCCN5CCCCC45)c3c(=O)c2c1 (stereo not drawn) [Compound 12] | 7.39 ± 2.31 | 5.85 | 7.89 ± 2.41 | 3.95 |  |  |  |  |  | 
COc1ccc2sc3c(C)ccc(NCCCC4CCCN5CCCCC45)c3c(=O)c2c1 (stereo not drawn) [Compound 7] | 12 ± 5.24 | 3.6 | 19.7 ± 5.79 | 1.6 |  |  |  |  |  | 
O=c1c2ccccc2sc2c([N+](=O)[O-])ccc(NCC3CCCN4CCCCC34)c12 (stereo not drawn) [Compound 8] | 19.2 ± 9.33 | 2.25 | 38.7 ± 7.67 | 0.8 |  |  |  |  |  | 
COc1ccc2sc3c(C)ccc(NCC4CCCN5CCCCC45)c3c(=O)c2c1 (stereo not drawn) [Compound 5] | 8.16 ± 5.23 | 5.3 | 8.99 ± 3.86 | 3.5 | no mortality |  |  |  |  | 
COc1ccc2sc3c([N+](=O)[O-])ccc(NCC4CCCN5CCCCC45)c3c(=O)c2c1 (stereo not drawn) [Compound 11] | 6.35 ± 1.46 | 6.8 | 13 ± 0.97 | 2.4 |  |  |  |  |  | 
